Patent US20060276510A1, “Dihydropyridine compounds and compositions for headaches” (priority 2005, published 2006)

Experiments:
[1] = tested on: carrageenan-induced thermal hyperalgesia; test: rat carrageenan-induced inflammatory pain model (thermal hyperalgesia, hind paw withdrawal latency); format: in vivo, Male Wistar rats; conditions: for effect on induced hyperalgesia (withdrawal latency of ipsilateral, carrageenan-injected hind paw): 1 hour after administration
Description: Anti-migraine agents are commonly evaluated using the carrageenan-induced thermal hyperalgesia model (Bingham et al, Experimental Neurology, 167:65-73 (2001); Daher et al, Life Sciences, 76:2349-2359 (2005)).
Male Wistar rats (5/group) were used for the experiment. Withdrawal latency to escape from heat noxious stimuli on both hind paws of the rats was measured using TAIL FLICK 7360 (Ugo Basile, Italy). 1% Carageenan was injected into the right hind paw footpat of the rats. […] The withdrawal latency from heat stimuli of both hind paws of rats was measured 1, 3 and 5 hours after drug administration.
The effect of carrageenan was observed during all of the experiment period.

[2] = two hours after infusion; patients; cited from earlier work

| Structure (SMILES) | effect on induced hyperalgesia (withdrawal latency of ipsilateral, carrageenan-injected hind paw) ([1]; 3 mg/kg orally, FIG. 1) | effect on induced hyperalgesia (withdrawal latency of ipsilateral, carrageenan-injected hind paw) ([1]; 6 mg/kg orally, FIG. 1) | course of the anti-hyperalgesic effect (ipsilateral hind paw) ([1]; 3 and 6 mg/kg orally, 3 and 5 hours after administration, FIG. 1) | withdrawal latency of contralateral hind paw ([1]; orally, contralateral (left) hind paw, FIG. 2) | effect on motor function (suggested from unchanged contralateral latency) ([1]; rats, orally, FIG. 2) | efficacy rate for a sustained response [2] [%] |
| --- | --- | --- | --- | --- | --- | --- |
| N#Cc1ccccc1-c1cc(-c2ccccn2)cn(-c2ccccc2)c1=O [Compound A, 2-(2-oxo-1-phenyl-5-pyridin-2-yl-1,2-dihydropyridin-3-yl)benzonitrile] | inhibited induced hyperalgesia | inhibited induced hyperalgesia | declined | did not change the latency | did not affect motor function |  |
| O=C(O)[C@@H]1C[C@H]2C[C@@H](CCc3nn[nH]n3)CC[C@H]2CN1 [LY293558] |  |  |  |  |  | 69 |
| CNS(=O)(=O)Cc1ccc2[nH]cc(CCN(C)C)c2c1 [sumatriptan] |  |  |  |  |  | 87 |
